This is an account of results in PMC10861852, “Loss of activation by GABA in vertebrate delta ionotropic glutamate receptors” (Proceedings of the National Academy of Sciences of the …, 2024).

For experiment [1], the system named is DanGluD2A^Lc. The experiment is described as follows: Two-electrode voltage clamp, inhibition of constitutive current in oocytes. Type of experiment: cell-based, Danio rerio. The note with it: lurcher-mutant receptor. (In general: Two-electrode voltage clamp holds a large cell at a set potential and records current.)
Experiment [2] deals with T1, RatGluD1^AC (Rattus norvegicus, UniProt Q62640, A654C).
T1 construct: expressed in transfected cells; host or cells: Xenopus laevis oocytes injected with mRNA
T1 sequence (Q62640 21-1009 A654C): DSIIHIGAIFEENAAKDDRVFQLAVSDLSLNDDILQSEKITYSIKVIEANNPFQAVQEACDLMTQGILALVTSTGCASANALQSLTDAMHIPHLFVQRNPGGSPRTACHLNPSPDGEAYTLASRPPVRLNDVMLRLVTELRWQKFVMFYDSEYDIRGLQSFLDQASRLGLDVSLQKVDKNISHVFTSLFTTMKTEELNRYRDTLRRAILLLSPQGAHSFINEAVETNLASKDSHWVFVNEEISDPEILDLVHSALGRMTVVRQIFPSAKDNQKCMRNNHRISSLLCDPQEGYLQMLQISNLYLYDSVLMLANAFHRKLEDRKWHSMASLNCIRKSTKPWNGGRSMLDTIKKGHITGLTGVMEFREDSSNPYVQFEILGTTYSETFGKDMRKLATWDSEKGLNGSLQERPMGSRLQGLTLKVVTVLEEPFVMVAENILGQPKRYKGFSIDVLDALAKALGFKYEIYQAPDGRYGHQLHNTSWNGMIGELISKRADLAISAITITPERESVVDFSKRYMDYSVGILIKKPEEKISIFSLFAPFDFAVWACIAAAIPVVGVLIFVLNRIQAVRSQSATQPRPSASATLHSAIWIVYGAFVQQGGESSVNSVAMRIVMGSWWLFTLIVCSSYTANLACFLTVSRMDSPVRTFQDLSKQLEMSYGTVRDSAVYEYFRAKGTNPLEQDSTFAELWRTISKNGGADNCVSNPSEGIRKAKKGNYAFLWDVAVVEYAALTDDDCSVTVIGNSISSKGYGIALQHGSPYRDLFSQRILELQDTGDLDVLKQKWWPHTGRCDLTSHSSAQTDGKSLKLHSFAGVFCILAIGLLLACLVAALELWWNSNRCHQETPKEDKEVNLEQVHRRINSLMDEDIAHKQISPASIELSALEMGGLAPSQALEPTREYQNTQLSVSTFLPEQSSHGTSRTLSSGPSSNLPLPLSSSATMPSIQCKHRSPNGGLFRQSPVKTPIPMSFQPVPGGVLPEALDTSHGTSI
The description is as above. The note with it: A654C mutant receptor, n = 10. It is filed as cell-based.

In experiment [3] the target is T2, AcaGluD (Acanthaster planci, UniProt A0A8B7XXR5).
T2 sequence (A0A8B7XXR5 24-958): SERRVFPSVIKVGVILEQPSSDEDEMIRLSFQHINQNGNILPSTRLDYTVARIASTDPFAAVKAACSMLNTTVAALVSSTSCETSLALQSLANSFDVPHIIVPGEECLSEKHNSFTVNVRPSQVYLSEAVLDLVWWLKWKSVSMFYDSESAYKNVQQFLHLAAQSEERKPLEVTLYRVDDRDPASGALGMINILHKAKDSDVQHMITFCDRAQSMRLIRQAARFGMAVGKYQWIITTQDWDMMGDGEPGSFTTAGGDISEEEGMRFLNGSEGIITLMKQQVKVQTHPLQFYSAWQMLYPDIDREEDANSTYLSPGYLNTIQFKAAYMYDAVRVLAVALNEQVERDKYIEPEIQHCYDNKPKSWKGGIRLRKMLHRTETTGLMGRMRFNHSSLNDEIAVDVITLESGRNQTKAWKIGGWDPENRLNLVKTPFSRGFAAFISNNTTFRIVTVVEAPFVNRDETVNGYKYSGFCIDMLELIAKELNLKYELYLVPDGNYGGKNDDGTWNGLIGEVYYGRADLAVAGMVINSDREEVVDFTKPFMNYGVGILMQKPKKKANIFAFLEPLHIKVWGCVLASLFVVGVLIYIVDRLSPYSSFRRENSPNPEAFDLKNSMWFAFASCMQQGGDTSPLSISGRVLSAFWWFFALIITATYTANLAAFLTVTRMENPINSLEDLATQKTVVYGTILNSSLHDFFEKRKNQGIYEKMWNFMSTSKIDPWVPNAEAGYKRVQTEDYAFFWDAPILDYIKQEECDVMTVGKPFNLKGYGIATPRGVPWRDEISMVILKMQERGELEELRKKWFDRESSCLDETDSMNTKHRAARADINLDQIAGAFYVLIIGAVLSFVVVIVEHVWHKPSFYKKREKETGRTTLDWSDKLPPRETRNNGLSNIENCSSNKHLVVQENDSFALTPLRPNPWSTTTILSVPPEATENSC
Put plainly: Two-electrode voltage clamp, ligand-gated currents in oocytes. Type of experiment: cell-based.

In experiment [4] the test system is DioGluD. Described as above. It is filed as cell-based, Diopisthoporus longitubus. The settings on record: wild-type.
In experiment [5] the test system is Q772D mutant AcaGluD. Put plainly: Two-electrode voltage clamp, ligand-gated currents in mutant-expressing oocytes.
Excerpt: (§1) As the long CTD is implicated little in channel gating and more in expression and trafficking of iGluRs ([3]), we excluded it from this analysis. […] (Two of the mutants incorporated substitutions of two adjacent residues for efficiency.)
In experiment [6] the test system is K782N mutant AcaGluD. The description is as above.
Excerpt: as §1
Experiment [7] concerns M805Q mutant AcaGluD. The description is as above.
Excerpt: as §1
Experiment [8] relates to V806R mutant AcaGluD. The experiment is described as above.
Excerpt: as §1
Experiment [9] addresses T3, RatGluD2^Lc^-9x (Rattus norvegicus, UniProt Q63226, A654T/A686S/D753Q/K694R/N720P/N763K/P806D/Q786M/R787V/Y613F).
T3 construct: expressed in transfected cells; host or cells: Xenopus laevis oocytes injected with mRNA
Put plainly: Two-electrode voltage clamp, responses to ligands in mutant-expressing oocytes. It is filed as cell-based. The settings on record: ligands 30 mM; receptor inactive at rest.

Experiment [10] deals with T4, RatGluD2^Lc^-10x (Rattus norvegicus, UniProt Q63226, A654T/A686S/D753Q/K694R/N720P/N763K/P806D/Q786M/R787V/S544G/Y613F).
T4 construct: expressed in transfected cells; host or cells: Xenopus laevis oocytes injected with mRNA
T4 sequence (Q63226 24-1007 S544G/Y613F/A654T/A686S/K694R/N720P/D753Q/N763K/Q786M/R787V/P806D): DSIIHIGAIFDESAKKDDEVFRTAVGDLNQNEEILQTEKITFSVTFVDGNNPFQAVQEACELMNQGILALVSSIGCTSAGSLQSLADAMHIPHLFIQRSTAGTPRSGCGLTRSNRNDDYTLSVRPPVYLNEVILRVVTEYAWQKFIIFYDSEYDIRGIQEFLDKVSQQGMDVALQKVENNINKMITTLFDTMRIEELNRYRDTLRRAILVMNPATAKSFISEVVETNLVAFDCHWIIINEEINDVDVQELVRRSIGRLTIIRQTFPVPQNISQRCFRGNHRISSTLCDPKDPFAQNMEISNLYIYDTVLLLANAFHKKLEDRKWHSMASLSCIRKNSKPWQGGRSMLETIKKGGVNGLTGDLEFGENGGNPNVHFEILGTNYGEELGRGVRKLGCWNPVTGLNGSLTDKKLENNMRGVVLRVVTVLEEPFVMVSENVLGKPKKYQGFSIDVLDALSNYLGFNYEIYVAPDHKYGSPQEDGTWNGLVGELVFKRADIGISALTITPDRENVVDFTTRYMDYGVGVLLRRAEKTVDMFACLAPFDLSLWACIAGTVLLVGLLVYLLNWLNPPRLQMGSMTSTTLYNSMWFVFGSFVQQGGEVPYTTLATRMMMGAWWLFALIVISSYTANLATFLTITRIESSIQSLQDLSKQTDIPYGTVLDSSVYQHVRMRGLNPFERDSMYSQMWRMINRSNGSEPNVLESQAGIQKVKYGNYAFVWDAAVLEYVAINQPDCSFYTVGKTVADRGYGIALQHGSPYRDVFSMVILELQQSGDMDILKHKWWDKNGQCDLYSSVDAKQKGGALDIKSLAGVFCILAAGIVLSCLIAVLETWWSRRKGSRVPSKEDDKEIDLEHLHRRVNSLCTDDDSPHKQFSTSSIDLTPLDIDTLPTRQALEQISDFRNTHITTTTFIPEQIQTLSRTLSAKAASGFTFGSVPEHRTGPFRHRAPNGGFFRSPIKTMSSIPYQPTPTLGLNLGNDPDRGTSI
Described as above. It is filed as cell-based. The note with it: ligands 30 mM.

Experiment [11] relates to AcaGluD^Rat^NTDlink. Put plainly: Two-electrode voltage clamp, ligand-gated currents in chimera-expressing oocytes. The settings on record: relative ligand-gated current amplitude, n = 3.
Excerpt: (§2) To answer this, we measured ligand-gated currents in two chimeric AcaGluD constructs in which the NTD was replaced with that of RatGluD2: one retaining the NTD-LBD linker of AcaGluD, “AcaGluD^Rat^NTD”; and the other with the NTD-LBD linker of RatGluD2, “AcaGluD^Rat^NTDlink” (Fig. 4 A and B and SI Appendix, Supporting text).
The subject of experiment [12] is AcaGluD^Rat^NTD. The experiment is described as above. The note with it: relative ligand-gated current amplitude, n = 3.
Excerpt: as §2

As usually defined, the EC50 is the midpoint of the concentration-response curve. A high value points to weaker potency.

T3 sequence (Q63226 24-1007 Y613F/A654T/A686S/K694R/N720P/D753Q/N763K/Q786M/R787V/P806D): as the sequence (Q63226 24-1007 S544G/Y613F/A654T/A686S/K694R/N720P/D753Q/N763K/Q786M/R787V/P806D) above, with G521S counted along it

For the compound `NCCCC(=O)O` [GABA, γ-aminobutyric acid], the results for the “inactivation of constitutive current relative to D-serine” value in experiment [1] (n = 4) and in experiment [2] were 58 ± 8% and 86 ± 5%, respectively. Also, the concentration giving a half-maximal response (EC50) in experiment [3] (0 Ca2+, n = 5) came to 5 ± 0.6 µM; in experiment [3] (ligand-gated current, 1.8 mM Ca2+ (regular bath solution), n = 5), 13 ± 3 µM. Besides, the “maximum GABA-gated current amplitude” value in [3] (WT, mutant comparison (Fig. 5B), n = 4) is listed as 8.2 ± 1.1 μA; in experiment [5], “less than 1 μA”; in [6] it was “less than 1 μA”; in experiment [7], “less than 1 μA”; in experiment [8], “less than 1 μA”. The figures for the “maximum ligand-gated current amplitude” value in experiment [3] (in the presence of 1.8 mM Ca2+) and in [3] (nominally Ca2+-free solutions) were 6.0 ± 1.0 µA and 0.42 ± 0.13 µA, respectively. The ligand-elicited currents entry in [4] is recorded as “the only ligand that elicited currents”.
Take `NCC(=O)O` [glycine]: the “effect on constitutive currents” value in [1] is recorded as “inactivated”. Moreover, the EC50 in experiment [3] (0 Ca2+, n = 4) was found to be 2000 ± 100 µM; in experiment [3] (ligand-gated current, 1.8 mM Ca2+ (regular bath solution)), 2000 ± 100 µM. The “maximum ligand-gated current amplitude” value is 0.33 ± 0.01 µA in experiment [3] (in the presence of 1.8 mM Ca2+) and 0.08 ± 0.01 µA in experiment [3] (nominally Ca2+-free solutions). For the same compound, the “current response to ligand” value was “conducted inward currents” in [9] and “showed inward currents” in experiment [10].
Turning to `N[C@H](CO)C(=O)O` [D-serine], the “effect on constitutive currents” value in experiment [1] is “inactivated”. In addition, the relative efficacy in experiment [3] (WT, relative ligand-gated current amplitude, n = 7) is recorded as 12 ± 3%; in experiment [11], 20 ± 3%; in [12], 5 ± 1%. In addition, in experiment [10], the “current response to ligand” value was “showed inward currents”.
